From PubChem BioAssay (NCI) come the findings set out here.

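Step 1: Grow cells in 96-well plates. Step 2: Expose to compound for 48 hours at 5 concentrations. Step 3: Interpolate endpoints linearly; if unreached, use highest concentration. Definition used: TGI = concentration required for complete inhibition of growth.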 A value given as a limit tells only on which side of the number the result lay.

Among the test systems are HCC-2998 colon; RPMI-8226 leukemia; COLO 205 colon; HT29 colon; SF-295 CNS; CAKI-1 renal; OVCAR-4 ovarian; NCI-H460 lung; 786-0 renal; SNB-75 CNS; SW-620 colon; HCT-116 colon; SK-MEL-2 melanoma; LOX IMVI melanoma.
Holding throughout (assay): NCI tumour cell line growth inhibition, 48 h

`CC[N+](CC)(CC)Cc1cn(S(=O)(=O)c2ccccc2)c2ccccc12`: the TGI with HCC-2998 colon, with RPMI-8226 leukemia, in the test with COLO 205 colon, with HT29 colon, in the test with SF-295 CNS and in the test with CAKI-1 renal was > 100 µM in each case. The TGI in the test with OVCAR-4 ovarian, with NCI-H460 lung, with 786-0 renal, with SNB-75 CNS, in the test with SW-620 colon and in the test on HCT-116 colon was > 100 µM in each case. In addition, the TGI in the test on SK-MEL-2 melanoma is > 100 µM.

For the compound `NC(=S)Nc1nnc(-c2ccc(-c3nnc(NC(N)=S)o3)cc2)o1`, the TGI with HCC-2998 colon, in the test on RPMI-8226 leukemia, in the test with COLO 205 colon, in the test with HT29 colon, with SF-295 CNS and in the test on CAKI-1 renal was > 100 µM in each case. Besides, the TGI in the test on OVCAR-4 ovarian, in the test with NCI-H460 lung, in the test with 786-0 renal, in the test with SNB-75 CNS, in the test on SW-620 colon and in the test on HCT-116 colon was > 100 µM throughout. The TGI with LOX IMVI melanoma and with SK-MEL-2 melanoma was > 100 µM in each case.

Turning to `COc1ccc2c(c1)CC1NC2Cc2ccccc21` (stereo not drawn), the TGI in the test with HCC-2998 colon, in the test on RPMI-8226 leukemia, in the test on COLO 205 colon, in the test with HT29 colon, in the test on SF-295 CNS and in the test on CAKI-1 renal was > 100 µM each time. Also, the TGI in the test with OVCAR-4 ovarian, with NCI-H460 lung, in the test with 786-0 renal, in the test with SNB-75 CNS, with SW-620 colon and in the test on HCT-116 colon was > 100 µM each time. In addition, in the test with SK-MEL-2 melanoma, the TGI was > 100 µM.

Take `C1=Cc2nc1c(-c1ccccc1)c1ccc([n-]1)c(-c1ccccc1)c1nc(c(-c3ccccc3)c3ccc([n-]3)c2-c2ccccc2)C=C1.[Zn+2]`: the TGI in the test with HCC-2998 colon, in the test with RPMI-8226 leukemia, with COLO 205 colon, in the test on HT29 colon, in the test with SF-295 CNS and in the test on CAKI-1 renal was > 100 µM each time. For the same compound, the TGI in the test with OVCAR-4 ovarian, with NCI-H460 lung, in the test on 786-0 renal, in the test on SNB-75 CNS, in the test on SW-620 colon and in the test on HCT-116 colon was > 100 µM each time. The TGI in the test on LOX IMVI melanoma and with SK-MEL-2 melanoma was > 100 µM in each case.

On to `CN(C)c1cccc(-c2cc(=O)c3cc4c(cc3[nH]2)OCO4)c1`, for which the TGI is 0.567 µM in the test with HCC-2998 colon; > 100 µM in the test on RPMI-8226 leukemia; 0.823 µM in the test on COLO 205 colon; > 100 µM in the test with HT29 colon; 0.693 µM in the test with SF-295 CNS; > 100 µM with CAKI-1 renal. The TGI with OVCAR-4 ovarian was 4.59 µM; in the test on NCI-H460 lung, 0.987 µM; with 786-0 renal it was 30.1 µM; in the test on SW-620 colon it was > 100 µM; in the test with LOX IMVI melanoma, > 100 µM; in the test with SK-MEL-2 melanoma, > 100 µM.

In the case of `BrC12C3C4C5C(C(C43)C13OCCO3)C52` (stereo not drawn), the TGI with HCC-2998 colon, with RPMI-8226 leukemia, with COLO 205 colon, with HT29 colon, in the test with SF-295 CNS and with NCI-H460 lung was > 100 µM in each case. The TGI in the test with 786-0 renal, in the test with SNB-75 CNS, in the test with SW-620 colon, in the test on HCT-116 colon, in the test with LOX IMVI melanoma and in the test with SK-MEL-2 melanoma was > 100 µM in each case.

Take `c1ccc2c(NCCCCCCCCNc3cccc4ccccc34)cccc2c1`: the TGI was > 100 µM with HCC-2998 colon; > 10 µM with RPMI-8226 leukemia; 35.4 µM in the test on COLO 205 colon; > 100 µM in the test with HT29 colon; > 100 µM in the test on SF-295 CNS; 35.8 µM in the test on CAKI-1 renal. The TGI in the test with OVCAR-4 ovarian worked out at 67.3 µM; in the test with NCI-H460 lung, 60.5 µM; in the test with 786-0 renal it was 57.1 µM; in the test with SNB-75 CNS, 83.2 µM; in the test with SW-620 colon, 40 µM; with HCT-116 colon, 40 µM. Moreover, the TGI in the test on SK-MEL-2 melanoma was > 100 µM.

For `Cc1nc2c(s/c(=N\N)n2-c2ccccc2)c(=O)[nH]1`, the TGI in the test on HCC-2998 colon, in the test on RPMI-8226 leukemia, in the test with COLO 205 colon, in the test on HT29 colon, in the test on SF-295 CNS and in the test with CAKI-1 renal was > 100 µM throughout. The TGI in the test on OVCAR-4 ovarian, in the test with NCI-H460 lung, in the test on 786-0 renal, with SNB-75 CNS, with SW-620 colon and in the test with HCT-116 colon was > 100 µM throughout. The TGI in the test on LOX IMVI melanoma and in the test with SK-MEL-2 melanoma was > 100 µM throughout.

On to `Cc1c(C(=O)Nc2ccc(Cl)c(C(F)(F)F)c2)oc2cc(O)ccc2/c1=N\NC(N)=S`, for which the TGI in the test with HCC-2998 colon, with RPMI-8226 leukemia, in the test on COLO 205 colon, in the test with HT29 colon, in the test on SF-295 CNS and in the test with CAKI-1 renal was > 100 µM throughout. The TGI in the test with OVCAR-4 ovarian, with NCI-H460 lung, in the test on 786-0 renal, with SNB-75 CNS, in the test with SW-620 colon and with HCT-116 colon was > 100 µM throughout. Besides, the TGI with LOX IMVI melanoma and with SK-MEL-2 melanoma was > 100 µM each time.

On to `CC1C(c2ccccc2)=CCON1c1ccccc1` (stereo not drawn), for which the TGI with HCC-2998 colon, in the test with RPMI-8226 leukemia, with COLO 205 colon, with HT29 colon, in the test with SF-295 CNS and with CAKI-1 renal was > 100 µM in each case. Moreover, the TGI with OVCAR-4 ovarian, in the test on NCI-H460 lung, with 786-0 renal, in the test with SNB-75 CNS, with SW-620 colon and in the test on HCT-116 colon was > 100 µM throughout. Moreover, the TGI in the test with LOX IMVI melanoma and with SK-MEL-2 melanoma was > 100 µM in each case.
